Results reported in paper PMC6509344, “Novel CMKLR1 Inhibitors for Application in Demyelinating Disease” (Scientific Reports, 2019).
Read-outs that look alike come from different tables or passages of the source.

Tests used:
[1] = Repeat dosing toxicity, 14 days; details: C57BL/6, mouse, in vivo, po; repeated dosing p.o. for up to 14 days; read-out: no-observable-adverse-effect-level (NOAEL)
Protocol: Mouse survival was monitored and body weight was measured daily for the length of the study. On day 14 the mice were euthanized and the wet weight for the following tissues: kidney, brain, spleen, liver, heart, and lung, was recorded.

CYP3A4 [2] = biological target: T1, CYP3A4 (Homo sapiens, UniProt P08684); assay: Cyp enzyme inhibition in human liver microsomes; type: in vitro ADME
T1 construct: tissue Cyprotex/Evotec AG; host or cells: human liver microsomes
T1 sequence (P08684 whole entry): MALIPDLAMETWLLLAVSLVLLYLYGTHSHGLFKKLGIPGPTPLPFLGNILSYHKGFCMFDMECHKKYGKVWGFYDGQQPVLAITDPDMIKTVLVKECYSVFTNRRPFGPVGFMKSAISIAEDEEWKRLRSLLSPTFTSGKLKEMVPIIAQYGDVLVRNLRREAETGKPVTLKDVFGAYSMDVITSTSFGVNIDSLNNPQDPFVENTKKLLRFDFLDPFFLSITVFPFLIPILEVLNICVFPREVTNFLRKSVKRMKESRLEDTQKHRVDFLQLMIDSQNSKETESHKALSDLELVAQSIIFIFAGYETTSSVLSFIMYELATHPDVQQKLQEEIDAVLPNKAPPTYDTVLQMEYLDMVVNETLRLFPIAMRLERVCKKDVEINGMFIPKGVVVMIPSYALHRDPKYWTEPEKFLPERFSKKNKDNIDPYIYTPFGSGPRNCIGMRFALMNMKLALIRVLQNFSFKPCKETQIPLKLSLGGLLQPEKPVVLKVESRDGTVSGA

Cyp2C9 = biological target: T2, Cyp2C9 (Homo sapiens, UniProt P11712); assay: Cyp enzyme inhibition in human liver microsomes; type: in vitro ADME; details: 30 min pre-incubation
T2 construct: tissue Cyprotex/Evotec AG; host or cells: human liver microsomes
T2 sequence (P11712 whole entry): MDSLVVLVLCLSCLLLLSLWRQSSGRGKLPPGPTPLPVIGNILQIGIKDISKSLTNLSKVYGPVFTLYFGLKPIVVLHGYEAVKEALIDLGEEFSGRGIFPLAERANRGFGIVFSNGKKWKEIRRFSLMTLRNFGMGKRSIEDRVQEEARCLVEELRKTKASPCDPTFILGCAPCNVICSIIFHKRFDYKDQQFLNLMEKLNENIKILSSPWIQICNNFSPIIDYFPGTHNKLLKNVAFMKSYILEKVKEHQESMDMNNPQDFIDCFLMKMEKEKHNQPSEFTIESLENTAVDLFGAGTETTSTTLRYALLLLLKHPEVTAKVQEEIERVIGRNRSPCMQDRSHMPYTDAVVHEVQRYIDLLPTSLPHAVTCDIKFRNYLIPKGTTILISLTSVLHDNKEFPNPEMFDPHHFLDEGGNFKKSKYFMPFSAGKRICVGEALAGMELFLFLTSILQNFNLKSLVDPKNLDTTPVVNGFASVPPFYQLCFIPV

Cyp3A4 [3] = test system: Cyp3A4; set-up: method as in PMID 25437209; details: substrate luciferin-6′ phenylpiperazinylyl; PubChem; cited from earlier work
Cyp2C8 = biological target: T3, Cyp2C8 (Homo sapiens, UniProt P10632); assay: Cyp enzyme inhibition in human liver microsomes; type: in vitro ADME; details: 30 min pre-incubation
T3 construct: tissue Cyprotex/Evotec AG; host or cells: human liver microsomes
T3 sequence (P10632 1-490): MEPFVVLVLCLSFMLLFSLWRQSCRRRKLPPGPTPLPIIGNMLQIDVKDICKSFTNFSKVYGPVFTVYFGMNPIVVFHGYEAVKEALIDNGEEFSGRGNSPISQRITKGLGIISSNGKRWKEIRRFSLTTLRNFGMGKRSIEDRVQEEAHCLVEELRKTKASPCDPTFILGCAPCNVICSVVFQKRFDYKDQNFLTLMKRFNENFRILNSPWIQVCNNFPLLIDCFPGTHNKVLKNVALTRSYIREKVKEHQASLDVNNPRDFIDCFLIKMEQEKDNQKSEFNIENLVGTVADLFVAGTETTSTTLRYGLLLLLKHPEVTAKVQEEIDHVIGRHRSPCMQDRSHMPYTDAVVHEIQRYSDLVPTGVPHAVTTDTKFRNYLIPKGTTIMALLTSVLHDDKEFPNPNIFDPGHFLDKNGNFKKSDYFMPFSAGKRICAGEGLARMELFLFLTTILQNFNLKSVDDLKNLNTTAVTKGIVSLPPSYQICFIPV

Cyp enzymes = assay: Time-dependent (mechanism-based) Cyp inhibition; type: in vitro ADME, human; details: not shown
Protocol: Human liver microsomes were pre-incubated with 7 concentrations (0.1–100 mM, duplicate wells) of α-NETA for 30 min.

Cyp2D6 = test system: Cyp2D6; set-up: method as in PubChem BioAssay ID 1461; details: ref PubChem BioAssay ID 1461; cited from earlier work
[4] = Acute single dose toxicity (LD50); details: C57BL/6, mouse, in vivo; p.o. (oral gavage) in 10% captisol, WT C57BL6 mice, 14 days monitoring
Protocol: C57/BL6 mice received one treatment of α-NETA (formulated in 10% captisol, Cydex Pharmaceuticals) at the following doses: 3000, 1000, 300, 100, 30, 0 mg/kg by oral gavage (200 ul/dose, 3 mice/group). Mouse survival was monitored and body weight was measured daily for 14 days. On day 14 the mice were euthanized and the wet weight for the following tissues: kidney, brain, spleen, liver, heart, and lung, was recorded.

CMKLR1 = biological target: T4, CMKLR1 (Homo sapiens, UniProt Q99788); assay: β-arrestin recruitment assay (chemerin-dependent β-arrestin2 signaling); type: cell-based; details: CMKLR1-CHO-β-Arrestin cells, 20 nM chemerin, read-out: β-arrestin IC50 mean ± SEM (n)
T4 construct: host or cells: CHO-K1 (PathHunter CMKLR1 β-Arrestin cells)
T4 sequence (Q99788 1-373): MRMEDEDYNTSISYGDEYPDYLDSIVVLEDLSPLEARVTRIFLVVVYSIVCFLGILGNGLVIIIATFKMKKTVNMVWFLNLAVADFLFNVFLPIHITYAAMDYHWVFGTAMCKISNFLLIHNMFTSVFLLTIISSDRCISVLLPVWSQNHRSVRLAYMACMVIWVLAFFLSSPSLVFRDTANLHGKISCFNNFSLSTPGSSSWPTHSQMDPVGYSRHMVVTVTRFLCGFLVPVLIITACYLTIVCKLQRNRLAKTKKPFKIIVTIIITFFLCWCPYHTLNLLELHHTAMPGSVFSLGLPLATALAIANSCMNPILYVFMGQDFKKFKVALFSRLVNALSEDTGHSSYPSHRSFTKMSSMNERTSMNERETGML
Protocol: DiscoverX PathHunter® CHO-K1 CMKLR1 β-Arrestin Cells were grown in RPMI lacking phenol red (Gibco, Life Technologies), supplemented with L-glutamine, penicillin-streptomycin, sodium pyruvate, non-essential amino acid, BCS, hygromycin, and G418-sulfate. CMKLR1-CHO-β-Arrestin cells were seeded in 96 well plates at 1 × 10^5 cell/ml- 100 ul/well and incubated overnight at 37 °C, 5% CO2. […] (α-NETA and test compounds were reconstituted in DMSO; final DMSO concentration in each well was 0.1%). After 10 min, 5 ul of recombinant human chemerin (R&D Systems) at a final concentration of 20 nM was added to each well. Plates were incubated for 90 min at 37 °C, 5% CO2. Media was then removed and 50 ul of chemiluminescent substrate (Tropix Gal-Screen, Applied Biosciences) was added. The plate was incubated for 1 hr at RT and luminescence was detected using the SpectraMax M5 plate reader (Molecular Devices). For each independent trial (single replicate dose curves), data was normalized to the maximum signal per compound tested and an IC50 value was generated using GraphPad Prism software. The average IC50 value for n independent trials (as specified in the table) is reported.

C57BL/6 mice with EAE = assay: Experimental autoimmune encephalomyelitis (EAE), MOG35–55/CFA immunization; type: in vivo, mouse
Protocol: C57BL/6 mice were purchased from The Jackson Laboratory. […] Animal experiments were conducted in accordance with approved Veterans Affairs, National Institutes of Health, and Institutional Animal Care and Use Committee guidelines.
CFA consisted of 5 mg/ml mTB (Mycobacterium-tuberculosis H37 Ra, BD Difco) in IFA (Incomplete Freund’s Adjuvant, Sigma). MOG35–55 was reconstituted at 2 mg/ml in PBS. Mice also received 200 ng pertussis toxin (List Biological Laboratories, Inc) by i.p. injection at the time of immunization and two days later. […] For a direct comparison to α-NETA, the DMF and compound doses were also 10 mg/kg in 10% captisol. Mice were monitored daily for clinical disease and scored (0 = normal/healthy, 1 = limp tail, 2 = hindlimb weakness, 3 = hindlimb paralysis, 4 = hindlimb and forelimb paralysis, 5 = moribund/dead).

Cyp1A2 = test system: Cyp1A2; set-up: method as in PubChem BioAssay ID 1476; details: ref PubChem BioAssay ID 1476; cited from earlier work
[5] = test system: Salmonella typhimurium (TA100); assay: Ames test for genotoxicity (AMES-MOD ISO); details: concentrations up to at least 10 uM
Protocol: Ames test was completed using the AMES-MOD ISO 96 well format assay, Version 1.1 (Environmental Bio-Detection Products Inc.) according to manufacturer’s instructions. In brief, Salmonella typhimurium (TA100) bacterial strain was exposed to the indicated doses of sodium azide (positive control) or α-NETA solubilized in DMSO (1% DMSO/well, 48 wells/dose completed in triplicate). After 2 h incubation the cells were diluted and cultured in media lacking histidine but containing pH indicator to identify revertant cell growth. After 3 days of incubation at 37 °C, the number of wells containing revertant cells was counted per dose.

Q: What does the source list for `C[N+](C)(C)CCC(=O)c1cccc2ccccc12.[I-]` [α-NETA, 2-(α-naphthoyl) ethyltrimethylammonium iodide]?
A: NOAEL at 14 days [1]: ≥ 300 mg/kg; IC50 (CYP3A4 [2]; human, liver microsomes, probe midazolam, substrate Midazolam): 7.4 µM; IC50 (CYP3A4 [2]; substrate Midazolam): 7.5 µM; IC50 (CYP3A4 [2]; substrate testosterone): 6.9 µM; IC50 (Cyp2C9): 14.6 µM; IC50 (Cyp3A4 [3]): 0.2 µM; IC50 (Cyp2C8): 1.5 µM; time-dependent (mechanism-based) Cyp inhibition (Cyp enzymes): No time-dependent (mechanism-based) Cyp inhibition was detected; IC50 (Cyp2D6): > 10 µM; LD50 at 14 days [4]: 873 mg/kg; IC50 (CMKLR1; Table 2 tertiary amines): 4.9 ± 1.5 µM; IC50 (CMKLR1; Table 3 quaternary ammonium salts): 4.9 ± 1.5 µM; day of EAE onset (mean ± SEM) (C57BL/6 mice with EAE; Fig. 1 study, 10 mg/kg daily in 10% captisol, s.c., d29 onset assumed for 2 α-NETA mice): 21 ± 2 days; Day of onset (Mean ± SEM) (C57BL/6 mice with EAE; Table 4, 10 mg/kg daily to D21, n = 8): 14.4 ± 0.6; Maximum Score (Mean ± SEM) (C57BL/6 mice with EAE; Table 4, 10 mg/kg daily to D21, n = 8, clinical score 0-5): 2.6 ± 0.2; AUC (Mean ± SEM) of clinical score (C57BL/6 mice with EAE; Table 4, 10 mg/kg daily to D21, n = 8, mean clinical score x day): 31.9 ± 4.0; IC50 (Cyp1A2): 8 µM; mutagenesis in Ames test (histidine revertants) [5]: did not induce mutagenesis
